This is an account of results in US20210268075A1, “PHARMACEUTICAL COMPOSITION AND METHOD OF TREATMENT USING SERRATIOPEPTIDASE, MANNOSE OR ITS DERIVATIVE, AND OPTIONALLY ANTINFECTION AGENTS” (priority 2020, published 2021).

The subject of this test is E. Coli ATCC 8739. The experiment in a line: In vitro suppression of bacterial growth from a biofilm on a plastic thread (transmittance of medium at 590 nm). It counts as cell-based. The following applies: 7 hours with Solution F/P, higher transmittance = less bacterial growth.

Protocol: 1 ml of Stock E. Coli ATCC 8739 (Culture Count 10×10^8 CFU/ml) was diluted to 10 ml with buffered peptone water with NaCl. The 1 ml of resulting culture (10×10^7 CFU/ml) was diluted to 10 ml with buffered peptone water with NaCl to make E. Coli Culture (10×10^6 CFU/ml)
On first day 6 PM, Five (5) sterile test tubes were added with 50 ml of sterile Soybean Casein Digest Medium. These medium were inoculated with 1 ml of E. Coli culture (10×10^6 CFU/ml @ 6 PM. A thin plastic thread (0.1 mm OD) of the same length were suspended from the middle of all 5 test tubes and keep in overnight (17 hours) at 30° C.-35° C. • 2. On second day 11 AM, another Five (5) sterile test tubes were added with 50 ml of sterile Soybean Casein Digest Medium and 500 mg of Glucose. • a. 1 ml of Solution F (D-mannose solution) was added to test tube 1. • b. 1 ml of Solution P (Serrapeptidase solution) was added to test tube 2. • c. 1 ml of Solution F (D-Mannose solution) and 1 ml of Solution P (Serrapeptidase solution) was added to test tube 3.
The thin plastic thread was transferred from old test tube to new test tube on second day 11 AM. All 5 test tubes were kept at 30° C.-35° C. for 7 hours. • 3. On second day 6 PM, another Five (5) sterile test tubes were added with 50 ml of Sterile Soybean Casein Digest Medium. Transfer the thin plastic thread from old test tube to new test tube on second day at 6 PM. […]

As to `O=C1CN(/N=C/c2ccc([N+](=O)[O-])o2)C(=O)N1` [A (Antibiotic), Nitrofurantoin Anhydrous], the “transmittance of test tube medium at 590 nm” value (Procedure 2: thick plastic thread (0.5 mm OD), then 1 ml Solution A overnight (17 hours) at 30-35° C.) is 6.9.
Consider `O=C1CN(/N=C/c2ccc([N+](=O)[O-])o2)C(=O)N1` [A^dil (Diluted Antibiotic), Nitrofurantoin Anhydrous], for which, under “Procedure 1: thin plastic thread (0.1 mm OD), overnight in fresh medium, then 1 ml Solution A^dil for 7 hours at 30-35° C.”, the “transmittance of test tube medium at 590 nm” value came to 8.4.
